Data taken from patent US6589974B1, “Pyrazolyl benzyl ether derivatives containing a fluoromethoxyimino group and use thereof as pesticides” (Bayer Aktiengesellschaft, priority 1999, dated 2003).

system: not listed separately; test: logP determination by HPLC (EEC Directive 79/831 Annex V.A8); assay type: physicochemical; conditions: not given
Description: The logP values were determined in accordance with EEC Directive 79/831 Annex V.A8 by HPLC (gradient method, acetonitrile/0.1% aqueous phosphoric acid).

| SMILES | chromatographic logP |
| --- | --- |
| COC(=O)C(=NOCF)c1ccccc1COc1ccn(-c2ccc(Cl)cc2)n1 [Example 1, methyl 2-[2-({[1-(4-chlorophenyl)-1H-pyrazol-3-yl]oxy}methyl)phenyl]-2-[(fluoromethoxy)imino]acetate] | 3.86 |
| CNC(=O)C(=NOCF)c1ccccc1COc1ccn(-c2ccc(Cl)cc2)n1 [Example 2, 2-[2-({[1-(4-chlorophenyl)-1H-pyrazol-3-yl]oxy}methyl)phenyl]-2-[(fluoromethoxy)imino]-N-methylacetamide] | 3.3 |

same assay, conditions: HPLC, gradient method, acetonitrile/0.1% aqueous phosphoric acid

| SMILES | logP |
| --- | --- |
| CNC(=O)C(=NOCF)c1ccccc1OCc1ccn(-c2ccc(F)cc2)n1 [Example 3] | 2.91 |
| COC(=O)C(=NOCF)c1ccccc1OCc1ccn(-c2ccc(C(C)C)cc2)n1 [Example 4] | 4.38 |
| CNC(=O)C(=NOCF)c1ccccc1OCc1ccn(-c2cccc(Br)c2)n1 [Example 5] | 3.39 |
| CNC(=O)C(=NOCF)c1ccccc1OCc1ccn(-c2ccc(Br)cc2)n1 [Example 6] | 3.4 |
| CNC(=O)C(=NOCF)c1ccccc1OCc1ccn(-c2cc(Cl)cc(Cl)c2)n1 [Example 7] | 3.93 |
| COC(=O)C(=NOCF)c1ccccc1OCc1ccn(-c2ccccc2Cl)n1 [Example 8] | 3.53 |
| COC(=O)C(=NOCF)c1ccccc1OCc1ccn(-c2ccc(C#N)cc2)n1 [Example 9] | 3.18 |
| COC(=O)C(=NOCF)c1ccccc1OCc1ccn(-c2ccc(C)cc2)n1 [Example 10] | 3.74 |
| COC(=O)C(=NOCF)c1ccccc1OCc1ccn(-c2ccc(Cl)cc2Cl)n1 [Example 11] | 4.09 |
| COC(=O)C(=NOCF)c1ccccc1OCc1ccn(-c2ccccc2Br)n1 [Example 12] | 3.54 |
| COC(=O)C(=NOCF)c1ccccc1OCc1ccn(-c2ccc(Br)cc2)n1 [Example 13] | 3.98 |
| COC(=O)C(=NOCF)c1ccccc1OCc1ccn(-c2ccccc2)n1 [Example 14] | 3.4 |
| COC(=O)C(=NOCF)c1ccccc1OCc1ccn(-c2cc(Cl)cc(Cl)c2)n1 [Example 15] | 4.52 |
| COC(=O)C(=NOCF)c1ccccc1OCc1ccn(-c2cccc(Br)c2)n1 [Example 16] | 3.98 |
| COC(=O)C(=NOCF)c1ccccc1OCc1ccn(-c2ccc(F)cc2)n1 [Example 17] | 3.47 |

Second part, the molecule after the results:

| logP | SMILES |
| --- | --- |
| 2.83 | CNC(=O)C(=NOCF)c1ccccc1OCc1ccn(-c2ccccc2)n1 [Example 18] |
| 3.5 | CNC(=O)C(=NOCF)c1ccccc1OCc1ccn(-c2ccc(Cl)cc2Cl)n1 [Example 19] |
| 4.63 | COC(=O)C(=NOCF)c1ccccc1OCc1ccn(-c2ccc(C(C)(C)C)cc2)n1 [Example 21] |
| 2.96 | CNC(=O)C(=NOCF)c1ccccc1OCc1ccn(-c2ccccc2Cl)n1 [Example 22] |
| 4.04 | CNC(=O)C(=NOCF)c1ccccc1OCc1ccn(-c2ccc(C(C)(C)C)cc2)n1 [Example 23] |
| 3.51 | COC(=O)C(=NOCF)c1ccccc1OCc1ccn(-c2ccccc2F)n1 [Example 25] |
| 3.52 | COC(=O)C(=NOCF)c1ccccc1OCc1ccn(-c2ccc(F)cc2F)n1 [Example 26] |
| 3.9 | COC(=O)C(=NOCF)c1ccccc1OCc1ccn(-c2cccc(Cl)c2Cl)n1 [Example 27] |
| 3.92 | COC(=O)C(=NOCF)c1ccccc1OCc1ccn(-c2ccc(C)c(C)c2)n1 [Example 28] |
| 4.5 | COC(=O)C(=NOCF)c1ccccc1OCc1ccn(-c2cc(Cl)ccc2Cl)n1 [Example 29] |
| 3.73 | COC(=O)C(=NOCF)c1ccccc1OCc1ccn(-c2cccc(C)c2)n1 [Example 30] |
| 3.15 | CNC(=O)C(=NOCF)c1ccccc1OCc1ccn(-c2cccc(C)c2)n1 [Example 31] |
| 2.93 | CNC(=O)C(=NOCF)c1ccccc1OCc1ccn(-c2ccccc2F)n1 [Example 32] |
| 3.02 | CNC(=O)C(=NOCF)c1ccccc1OCc1ccn(-c2ccc(F)cc2F)n1 [Example 33] |
| 3.31 | CNC(=O)C(=NOCF)c1ccccc1OCc1ccn(-c2cccc(Cl)c2Cl)n1 [Example 34] |
| 3.43 | CNC(=O)C(=NOCF)c1ccccc1OCc1ccn(-c2cc(Cl)ccc2Cl)n1 [Example 36] |
| 3.88 | COC(=O)C(=NOCF)c1ccccc1OCc1ccn(-c2cccc(Cl)c2)n1 [Example 37] |
| 3.83 | CNC(=O)C(=NOCF)c1ccccc1OCc1ccn(-c2ccc(C(C)C)cc2)n1 [Example 38] |
| 3.14 | CNC(=O)C(=NOCF)c1ccccc1OCc1ccn(-c2ccc(C)cc2)n1 [Example 41] |
| 2.64 | CNC(=O)C(=NOCF)c1ccccc1OCc1ccn(-c2ccc(C#N)cc2)n1 [Example 42] |
| 3.3 | CNC(=O)C(=NOCF)c1ccccc1OCc1ccn(-c2cccc(Cl)c2)n1 [Example 43] |

system: Erysiphe graminis f.sp. hordei; test: Erysiphe Test (barley)/protective; assay type: in vivo; conditions: protective, application rate 250 g/ha, evaluation 7 days after inoculation
Description: Erysiphe Test (barley)/protective Solvent: 25 parts by weight of N,N-dimethylacetamide Emulsifier: 0.6 part by weight of alkylaryl polyglycol ether To produce a suitable preparation of active compound, 1 part by weight of active compound is mixed with the stated amounts of solvent and emulsifier, and the concentrate is diluted with water to the desired concentration. To test for protective activity, young plants are sprayed with the preparation of active compound at the stated application rate. After the spray coating has dried on, the plants are dusted with spores of Erysiphe graminis f.sp. hordei. The plants are placed in a greenhouse at a temperature of about 20° C. and a relative atmospheric humidity of about 80% to promote the development of mildew pustules.

| SMILES | efficacy [%] |
| --- | --- |
| CNC(=O)C(=NOCF)c1ccccc1COc1ccn(-c2ccc(Cl)cc2)n1 [Example 2, 2-[2-({[1-(4-chlorophenyl)-1H-pyrazol-3-yl]oxy}methyl)phenyl]-2-[(fluoromethoxy)imino]-N-methylacetamide] | ≥ 98 |

system: Puccinia recondita; test: Puccinia Test (wheat)/protective; assay type: in vivo; conditions: protective, application rate 250 g/ha, evaluation 10 days after inoculation
Description: Puccinia Test (wheat)/protective Solvent: 25 parts by weight of N,N-dimethylacetamide Emulsifier: 0.6 part by weight of alkylaryl polyglycol ether To produce a suitable preparation of active compound, 1 part by weight of active compound is mixed with the stated amounts of solvent and emulsifier, and the concentrate is diluted with water to the desired concentration. To test for protective activity, young plants are sprayed with the preparation of active compound at the stated application rate. After the spray coating has dried on, the plants are sprayed with a conidia suspension of Puccinia recondita. The plants remain in an incubation cabin at 20° C. and 100% relative atmospheric humidity for 48 hours. The plants are then placed in a greenhouse at a temperature of about 20° C. and a relative atmospheric humidity of 80% to promote the development of rust pustules.

| SMILES | efficacy [%] |
| --- | --- |
| COC(=O)C(=NOCF)c1ccccc1COc1ccn(-c2ccc(Cl)cc2)n1 [Example 1, methyl 2-[2-({[1-(4-chlorophenyl)-1H-pyrazol-3-yl]oxy}methyl)phenyl]-2-[(fluoromethoxy)imino]acetate] | ≥ 98 |

system: Puccinia recondita; test: Puccinia Test (wheat)/curative; assay type: in vivo; conditions: curative, application rate 250 g/ha, evaluation 10 days after inoculation
Description: Puccinia Test (wheat)/curative Solvent: 25 parts by weight of N,N-dimethylacetamide Emulsifier: 0.6 part by weight of alkylaryl polyglycol ether To produce a suitable preparation of active compound, 1 part by weight of active compound is mixed with the stated amounts of solvent and emulsifier, and the concentrate is diluted with water to the desired concentration. To test for curative activity, young plants are sprayed with a conidia suspension of Puccinia recondita. The plants remain in an incubation cabin at 20° C. and 100% relative atmospheric humidity for 48 hours. The plants are then sprayed with the preparation of active compound at the stated application rate. The plants are placed in a greenhouse at a temperature of about 20° C. and a relative atmospheric humidity of about 80% to promote the development of rust pustules.

| SMILES | efficacy [%] |
| --- | --- |
| CNC(=O)C(=NOCF)c1ccccc1COc1ccn(-c2ccc(Cl)cc2)n1 [Example 2, 2-[2-({[1-(4-chlorophenyl)-1H-pyrazol-3-yl]oxy}methyl)phenyl]-2-[(fluoromethoxy)imino]-N-methylacetamide] | ≥ 98 |

system: larvae of the mustard beetle (Phaedon cochleariae); test: Phaedon Larvae Test; assay type: in vivo; conditions: cabbage leaves (Brassica oleracea) dipped, concentration of active compound 1000 ppm
Description: Phaedon Larvae Test Solvent: 30 parts by weight of acetone Emulsifier: 1 part by weight of alkylaryl polyglycol ether To produce a suitable preparation of active compound, 1 part by weight of active compound is mixed with the stated amounts of solvent and emulsifier, and the concentrate is diluted with emulsifier-containing water to the desired concentration. Cabbage leaves (Brassica oleracea) are treated by being dipped into the preparation of active compound of the desired concentration and are populated with larvae of the mustard beetle (Phaedon cochleariae) while the leaves are still moist. After the desired period of time, the kill in % is determined. 100% means that all beetle larvae have been killed; 0% means that none of the beetle larvae have been killed.

| SMILES | kill rate [%] |
| --- | --- |
| COC(=O)C(=NOCF)c1ccccc1COc1ccn(-c2ccc(Cl)cc2)n1 [Example 1, methyl 2-[2-({[1-(4-chlorophenyl)-1H-pyrazol-3-yl]oxy}methyl)phenyl]-2-[(fluoromethoxy)imino]acetate] | 100 |

system: green peach aphid (Myzus persicae); test: Myzus Test; assay type: in vivo; conditions: broad bean seedlings (Vicia faba) dipped, concentration of active compound 1000 ppm
Description: Myzus Test Solvent: 30 parts by weight of acetone Emulsifier: 1 part by weight of alkylaryl polyglycol ether To produce a suitable preparation of active compound, 1 part by weight of active compound is mixed with the stated amounts of solvent and emulsifier, […], and the concentrate is diluted with emulsifier-containing water to the desired concentrations. Broad bean seedlings (Vicia faba) infested by the green peach aphid (Myzus persicae) are dipped into a preparation of active compound of the desired concentration and placed in a dish made of plastic. After the desired period of time, the kill in % is determined. 100% means that all animals have been killed; 0% means that none of the animals have been killed.

| SMILES | kill rate [%] |
| --- | --- |
| COC(=O)C(=NOCF)c1ccccc1COc1ccn(-c2ccc(Cl)cc2)n1 [Example 1, methyl 2-[2-({[1-(4-chlorophenyl)-1H-pyrazol-3-yl]oxy}methyl)phenyl]-2-[(fluoromethoxy)imino]acetate] | 95 |
